Test results taken from patent US12685312B2, “Sulfonamide apyrase inhibitors” (Texas Crop Science, Inc., priority 2022, dated 2026).

Tested on: apyrase
Assay: Screen for apyrase inhibitors (Method 1, in vitro phosphate-release absorbance assay)
Assay type: biochemical
Conditions: inhibitor conc at 1 mM stock, 1 hr room temperature, absorbance 630 nm; rounded average of two assay results
How it was run: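 Phosphate-release colorimetric assay (Windsor method) in 60 mM Hepes, 3 mM MgCl2, 3 mM CaCl2, 3 mM ATP, pH 6.5, with compound or DMSO control added. Released phosphate developed with ammonium molybdate and ascorbic acid/TCA, then stopped with citrate/acetic acid.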

| Compound | % Inhibition of Apyrase [%] |
| --- | --- |
| O=C(c1ccc(S(=O)(=O)Nc2ccc(Cl)cc2)cc1)N1CCc2ccccc21 [I-208, N-(4-chlorophenyl)-4-(indoline-1-carbonyl)benzenesulfonamide] | 66 |
| O=C(Nc1ccc(OC(F)F)cc1)c1cccc(S(=O)(=O)Nc2ccc3c(c2)OCO3)c1 [I-243, 3-(N-(benzo[d][1,3]dioxol-5-yl)sulfamoyl)-N-(4-(difluoromethoxy)phenyl)benzamide] | 69 |
| O=C(Nc1nnc(C2CC2)s1)c1cccc(NS(=O)(=O)c2ccccc2)c1 [I-652, N-(5-cyclopropyl-1,3,4-thiadiazol-2-yl)-3-(phenylsulfonamido)benzamide] | 45 |
| COc1ccccc1C(=O)Nc1ccc(S(=O)(=O)Nc2cccc(Cl)c2)cc1 [I-995, N-(4-(N-(3-chlorophenyl)sulfamoyl)phenyl)-2-methoxybenzamide] | 46 |
| O=C(Nc1cccc(S(=O)(=O)Nc2ccc(Cl)cc2)c1)c1cc2c(s1)CCCC2 [I-709, N-(3-(N-(4-chlorophenyl)sulfamoyl)phenyl)-4,5,6,7-tetrahydrobenzo[b]thiophene-2-carboxamide] | 61 |
| CC(=O)Nc1ccc(NC(=O)c2cccc(S(=O)(=O)Nc3ccc(Br)cc3)c2)cc1 [I-47, N-(4-acetamidophenyl)-3-(N-(4-bromophenyl)sulfamoyl)benzamide] | 12 |
| Cc1cc(C(=O)Nc2cccc(S(=O)(=O)Nc3ccccc3F)c2)no1 [I-731, N-(3-(N-(2-fluorophenyl)sulfamoyl)phenyl)-5-methylisoxazole-3-carboxamide] | 55 |
| COc1cccc(NC(=O)c2ccc(Cl)c(S(=O)(=O)N3CCc4ccccc43)c2)c1 [I-500, 4-chloro-3-(indolin-1-ylsulfonyl)-N-(3-methoxyphenyl)benzamide] | 57 |
| O=C(NCc1ccco1)c1cccc(S(=O)(=O)Nc2ccc(Br)cc2)c1 [I-48, 3-(N-(4-bromophenyl)sulfamoyl)-N-(furan-2-ylmethyl)benzamide] | 11 |
| O=C(Nc1ccc2c(c1)OCCO2)c1ccc(Cl)c(S(=O)(=O)N2CCc3ccccc32)c1 [I-524, 4-chloro-N-(2,3-dihydrobenzo[b][1,4]dioxin-6-yl)-3-(indolin-1-ylsulfonyl)benzamide] | 55 |
| COc1ccc(N(C)S(=O)(=O)c2cccc(C(=O)Nc3ccc4c(c3)OCCO4)c2)cc1 [I-563, N-(2,3-dihydrobenzo[b][1,4]dioxin-6-yl)-3-(N-(4-methoxyphenyl)-N-methylsulfamoyl)benzamide] | 51 |
| Cc1ccc(NC(=O)c2ccc(S(=O)(=O)Nc3cccc(C(F)(F)F)c3)cc2)c(C)c1 [I-225, N-(2,4-dimethylphenyl)-4-(N-(3-(trifluoromethyl)phenyl)sulfamoyl)benzamide] | 72 |
| NS(=O)(=O)c1cc(C(=O)Nc2ccc(S(=O)(=O)Nc3ccc(Cl)cc3)cc2)ccc1Cl [I-987, 4-chloro-N-(4-(N-(4-chlorophenyl)sulfamoyl)phenyl)-3-sulfamoylbenzamide] | 55 |
| Cc1ccc(C(=O)Nc2cccc(S(=O)(=O)Nc3cccc(C(F)(F)F)c3)c2)cn1 [I-740, 6-methyl-N-(3-(N-(3-(trifluoromethyl)phenyl)sulfamoyl)phenyl)nico tinamide] | 51 |
| COc1ccc(NS(=O)(=O)c2cc(OC)ccc2NC(=O)c2c(OC)cccc2OC)cc1 [I-827, 2,6-dimethoxy-N-(4-methoxy-2-(N-(4-methoxyphenyl)sulfamoyl)phenyl)benzamide] | 39 |
| Cc1cccc(NS(=O)(=O)c2ccc(C)c(C(=O)N3CCCc4ccccc43)c2)c1 [I-489, 4-methyl-3-(1,2,3,4-tetrahydroquinoline-1-carbonyl)-N-(m-tolyl)benzenesulfonamide] | 58 |
| O=C(Nc1cccc([N+](=O)[O-])c1)c1cccc(S(=O)(=O)Nc2ccc(Cl)cc2)c1 [I-21, 3-(N-(4-chlorophenyl)sulfamoyl)-N-(3-nitrophenyl)benzamide] | 45 |
| O=C1CCc2cc(S(=O)(=O)Nc3cccc(C(=O)Nc4cccc(C(F)(F)F)c4)c3)ccc2N1 [I-218, 3-((2-oxo-1,2,3,4-tetrahydroquinoline)-6-sulfonamido)-N-(3-(trifluoromethyl)phenyl)benzamide] | 62 |
| Cc1ccc(C(=O)Nc2cccc([N+](=O)[O-])c2)cc1S(=O)(=O)Nc1ccc(C(=O)O)cc1 [I-45, 4-((2-methyl-5-((3-nitrophenyl)carbamoyl)phenyl)sulfonamido) benzoic acid] | 13 |
| CN(c1ccccc1)S(=O)(=O)c1cccc(NC(=O)c2ccsc2)c1 [I-716, N-(3-(N-methyl-N-phenylsulfamoyl)phenyl)thiophene-3-carboxamide] | 58 |

| Compound | % Inhibition of Apyrase [%] |
| --- | --- |
| O=C(Nc1ccc(Cl)c([N+](=O)[O-])c1)c1cccc(S(=O)(=O)Nc2cc(C(F)(F)F)ccc2Cl)c1 [I-241, N-(4-chloro-3-nitrophenyl)-3-(N-(2-chloro-5-(trifluoromethyl)phenyl)sulfamoyl)benzamide] | 71 |
| CNC(=O)c1ccc(NC(=O)c2ccc(S(=O)(=O)Nc3ccc(C)cc3)cc2)cc1 [I-874, N-methyl-4-(4-(N-(p-tolyl)sulfamoyl)benzamido)benzamide] | 56 |
| CCc1ccccc1NC(=O)c1cccc(S(=O)(=O)N2CCc3ccccc32)c1 [I-566, N-(2-ethylphenyl)-3-(indolin-1-ylsulfonyl)benzamide] | 51 |
| CC1Cc2ccccc2N1S(=O)(=O)c1cccc(C(=O)Nc2ccccc2C(C)(C)C)c1 (stereo not shown) [I-534, N-(2-(tert-butyl)phenyl)-3-((2-methylindolin-1-yl)sulfonyl)benzamide] | 54 |
| O=C(Nc1cccc([N+](=O)[O-])c1)c1cccc(S(=O)(=O)Nc2cccc([N+](=O)[O-])c2)c1 [I-32, N-(3-nitrophenyl)-3-(N-(3-nitrophenyl)sulfamoyl)benzamide] | 21 |
| C=CCN(c1ccccc1Cl)S(=O)(=O)c1cc(C(=O)N2CCc3ccccc32)ccc1Cl [I-516, N-allyl-2-chloro-N-(2-chlorophenyl)-5-(indoline-1-carbonyl)benzenesulfonamide] | 56 |
| Cc1ccc(NC(=O)c2cccc(NS(=O)(=O)c3cccs3)c2)cc1C [I-636, N-(3,4-dimethylphenyl)-3-(thiophene-2-sulfonamido)benzamide] | 58 |
| C=CCN(c1ccc(Cl)cc1)S(=O)(=O)c1ccc(Cl)c(C(=O)N2CCc3ccccc32)c1 [I-486, N-allyl-4-chloro-N-(4-chlorophenyl)-3-(indoline-1-carbonyl)benzenesulfonamide] | 58 |
| CCOc1ccc(NC(=O)c2cc(S(=O)(=O)N3CCc4ccccc43)ccc2OC)cc1 [I-581, N-(4-ethoxyphenyl)-5-(indolin-1-ylsulfonyl)-2-methoxybenzamide] | 47 |
| O=C(Nc1cccc(S(=O)(=O)Nc2ccccc2Cl)c1)c1ccc(Cl)nc1 [I-746, 6-chloro-N-(3-(N-(2-chlorophenyl)sulfamoyl)phenyl)nicotinamide] | 45 |
| CN(c1ccccc1)S(=O)(=O)c1ccccc1C(=O)Nc1ccc(C#N)cc1 [I-235, N-(4-cyanophenyl)-2-(N-methyl-N-phenylsulfamoyl)benzamide] | 51 |
| O=C(Nc1cccc([N+](=O)[O-])c1)c1cccc(S(=O)(=O)Nc2ccc(F)cc2)c1 [I-31, 3-(N-(4-fluorophenyl)sulfamoyl)-N-(3-nitrophenyl)benzamide] | 21 |
| O=C(Nc1ccc(Cl)cc1Cl)c1cccc(S(=O)(=O)Nc2ccc(Cl)cc2)c1 [I-519, 3-(N-(4-chlorophenyl)sulfamoyl)-N-(2,4-dichlorophenyl)benzamide] | 56 |
| COc1ccccc1NC(=O)c1ccc(NS(=O)(=O)c2ccc(C(F)(F)F)cc2)cc1 [I-934, N-(2-methoxyphenyl)-4-((4-(trifluoromethyl)phenyl)sulfonamido) benzamide] | 53 |
| CC1Cc2ccccc2N1C(=O)c1ccc(S(=O)(=O)Nc2ccccc2)cc1 (stereo not shown) [I-857, 4-(2-methylindoline-1-carbonyl)-N-phenylbenzenesulfonamide] | 76 |
| O=C(Nc1cccc2ncccc12)c1cccc(S(=O)(=O)N2CCc3ccccc32)c1 [I-596, 3-(indolin-1-ylsulfonyl)-N-(quinolin-5-yl)benzamide] | 35 |
| Cc1ccc(S(=O)(=O)Nc2cccc(NC(=O)c3ccc4c(c3)OCCO4)c2)cc1C [I-227, N-(3-((3,4-dimethylphenyl)sulfonamido)phenyl)-2,3-dihydrobenzo[b][1,4]dioxine-6-carboxamide] | 71 |
| Cc1ccc(C)c(S(=O)(=O)Nc2ccc(C(=O)Nc3ccc4c(c3)OCO4)cc2)c1 [I-929, N-(benzo[d][1,3]dioxol-5-yl)-4-((2,5-dimethylphenyl)sulfonamido)benzamide] | 55 |
| CCOC(=O)c1sc(NC(=O)c2cccc(S(=O)(=O)Nc3ccccc3F)c2)cc1C [I-432, ethyl 5-(3-(N-(2-fluorophenyl)sulfamoyl)benzamido)-3-methylthiophene-2-carboxylate] | 66 |
| O=C(Nc1ccccc1OC(F)F)c1ccc(Cl)c(S(=O)(=O)N2CCc3ccccc32)c1 [I-463, 4-chloro-N-(2-(difluoromethoxy)phenyl)-3-(indolin-1-ylsulfonyl)benzamide] | 59 |
